Experimental findings from patent publication US20130202653A1, “3-ARYL-3-HYDROXY-2-AMINO-PROPIONIC ACID AMIDES, 3-HETEROARYL-3-HYDROXY-2-AMINOPROPIONIC ACID AMIDES AND RELATED COMPOUNDS HAVING ANALGESIC AND/OR IMMUNO STIMULANT ACTIVITY” (Allergan, Inc., priority 2005, published 2013) are described below.

Where a name gives a salt, the structure may show the parent alone. Read-outs that look alike come from different tables or passages of the source.

Data set [1] deals with tactile allodynia in the rat Chung model. Nature of the data set: Chung model: reversal of tactile allodynia (von Frey hairs) after spinal nerve ligation. Particulars: for inhibition in vivo at 0.3 mg/kg / inhibition in vivo at 0.03 mg/kg / inhibition in vivo at 0.1 mg/kg: ip; for inhibition in vivo at 0.03 mg/kg: 30 μg/kg IP; for inhibition in vivo at 0.1 mg/kg: 100 μg/kg IP. Format: in vivo. From the text:
An art-accepted model or assay for measuring an analgesic effect of a compound in chronic pain (in particular peripheral neuropathy) is the model known as Kim and Chung 1992, Pain […], pp 355-363 (Chung model). This model involves the surgical ligation of the L5 (and optionally the L6) spinal nerves on one side in experimental animals. Rats recovering from the surgery gain weight and display a level of general activity similar to that of normal rats. However, these rats develop abnormalities of the foot, wherein the hindpaw is moderately everted and the toes are held together. More importantly, the hindpaw on the side affected by the surgery appears to become sensitive to low-threshold mechanical stimuli and will perceive pain instead of the faint sensation of touch. This sensitivity to normally non-painful touch, called “tactile allodynia”, develops within the first week after surgery and lasts for at least two months. The allodynia response includes lifting the affected hindpaw to escape from the stimulus, licking the paw and holding it in the air for many seconds. None of these responses is normally seen in the control group.
To produce the tactile allodynia, rats are anesthetized before surgery. The surgical site is shaved and prepared either with betadine or Novacaine. Incision is made from the thoracic vertebra X111 down toward the sacrum. Muscle tissue is separated from the spinal vertebra (left side) at the L4-S2 levels. The L6 vertebra is located and the transverse process is carefully removed with a small rongeur to expose the L4-L6 spinal nerves. The L5 and L6 spinal nerves are isolated and tightly ligated with 6-0 silk thread. The same procedure is done on the right side as a control, except no ligation of the spinal nerves is performed.
After a complete hemostasis is confirmed, the wounds are sutured. A small amount of antibiotic ointment is applied to the incised area, and the rat is transferred to the recovery plastic cage under a regulated heat-temperature lamp.
On the day of the experiment, at least seven days after the surgery, typically six rats per test group are administered the test drugs by intraperitoneal (i.p.) injection or oral gavage (p.o.). For i.p. administration, the compounds are formulated in H2O and given in a volume of 1 ml/kg body weight by injecting into the intraperitoneal cavity. For p.o. administration, the compounds are formulated in H2O and given in a volume of 1 ml/kg body weight using an 18-gauge, 3 inch gavage needle that is slowly inserted through the esophagus into the stomach.
Tactile allodynia is assessed via von Frey hairs, which are a series of fine hairs with incremental differences in stiffness. Rats are placed in a plastic cage with a wire mesh bottom and allowed to acclimate for approximately 30 minutes. To establish the pre-drug baseline, the von Frey hairs are applied perpendicularly through the mesh to the mid-plantar region of the rats' hindpaw with sufficient force to cause slight buckling and held for 6-8 seconds. The applied force has been calculated to range from 0.41 to 15.1 grams. If the paw is sharply withdrawn, it is considered a positive response. A normal animal will not respond to stimuli in this range, but a surgically ligated paw will be withdrawn in response to a 1-2 gram hair. The 50% paw withdrawal threshold is determined using the method of Dixon, W. J., Ann. Rev. Pharmacol. Toxicol. 20:441-462 (1980) hereby incorporated by reference. Tactile allodynia is measured prior to and 15, 30, and 60 minutes after drug administration. The post-drug threshold is compared to the pre-drug threshold and the percent reversal of tactile sensitivity is calculated based on a normal threshold of 15.1 grams.
Table 1 below indicates the degree of pain reversal obtained in the Chung model with exemplary compounds of the invention. […]

A further data set has as its system spleen size. Nature of the data set: Immunostimulation: splenic size after systemic administration. Format: in vivo. Particulars: animals dosed at 200 mg/kg; rats. From the text:
An art accepted method for measuring immuno stimulation comprises systemic administration of compounds to assay for the ability to stimulate the immune system, possibly due to nonspecific upregulation of the hemolymphoreticular system. This upregulation could result in increased numbers of lymphocytes of both T- and B-cell lineage.

Where [2] appears, read: Rattus norvegicus, 1 h, 300 μg/kg IP, peak at 60 min post dose, read-out: Peak % Pain reversal: time post dose.
Setting [3] is: Rattus norvegicus, 1 h, peak at 60 min post dose, read-out: Peak % Pain reversal: time post dose.
[4] abbreviates: Rattus norvegicus, 0.5 h, 300 μg/kg IP, peak at 30 min post dose, read-out: Peak % Pain reversal: time post dose.

As usually defined, the melting point is the temperature, or range, at which the solid turns liquid. In turn, `N[C@@H](C(=O)N1CCCC1)[C@@H](O)c1cccnc1` (racemic) (as salt: hydrochloride) [Compound 20, DL-threo-2-Amino-3-hydroxy-3-(pyridin-3-yl)-1-(pyrrolidin-1-yl)propan-1-one dihydrochloride] displayed a melting point of 159.6 °C.
Turning to `NC(C(=O)N1CCCC1)C(=NO)c1ccncc1` (racemic) [Compound 224, (±)-2-Amino-3-(hydroxyimino)-3-(pyridin-4-yl)-1-(pyrrolidin-1-yl)propan-1-one dihydrochloride], the inhibition in vivo at 0.3 mg/kg in data set [1] (setting [2]) turned out to be 51%.
For `N[C@@H](Cc1ccncc1)C(=O)N1CCCC1` [Compound 240, (S)-2-amino-3-(pyridin-4-yl)-1-(pyrrolidin-1-yl)propan-1-one dihydrochloride], in data set [1] (setting [3]), the inhibition in vivo at 0.03 mg/kg amounted to 70%.
Take `O=C(N[C@@H](C(=O)N1CCCC1)[C@@H](O)c1ccncc1)OCc1ccccc1` (racemic) [Compound 58, Benzyl DL-threo-3-hydroxy-1-oxo-3-(pyridin-4-yl)-1-(pyrrolidin-1-yl)propan-2-ylcarbamate hydrochloride]: the inhibition in vivo at 0.3 mg/kg in data set [1] (setting [2]) worked out at 75%.
Take `N[C@@H](C(=O)N1CCOCC1)[C@@H](O)c1cccnc1` (racemic) [Compound 232, (±)-threo-2-Amino-3-hydroxy-1-morpholino-3-(pyridin-3-yl)propan-1-one dihydrochloride]: the inhibition in vivo at 0.3 mg/kg in data set [1] (setting [2]) came out at 80%.
For the compound `N[C@@H](C(=O)N1CCCC1)[C@@H](O)c1ccncc1Cl` (racemic) [Compound 43, DL-threo-2-Amino-3-(3-chloropyridin-4-yl)-3-hydroxy-1-(pyrrolidin-1-yl)propan-1-one dihydrochloride], in data set [1] (setting [2]), the inhibition in vivo at 0.3 mg/kg was found to be 96%.
For the compound `N[C@@H](C(=O)N1CCCC1)[C@@H](O)c1ccncc1` (racemic) [Compound 22, DL-threo-2-Amino-3-hydroxy-3-(pyridin-4-yl)-1-(pyrrolidin-1-yl)propan-1-one dihydrochloride], the “increase in spleen size” value in the data set with spleen size is recorded as “twentyfive”. The inhibition in vivo at 0.1 mg/kg in data set [1] (setting [3]) is 100%. In addition, the inhibition in vivo at 3 mg/kg in data set [1] (Rattus norvegicus, po, 1 h, 3000 μg/kg PO, peak at 60 min post dose, read-out: Peak % Pain reversal: time post dose) was determined as 100%.
Take `NC(C(=O)N1CCCC1)C(O)c1ccsc1` (single isomer, unassigned; (-)) [Compound 206, (−)-threo-2-Amino-3-hydroxy-1-(pyrrolidin-1-yl)-3-(thiophen-3-yl)propan-1-one hydrochloride]: the “Peak % Pain reversal: time post dose” value in data set [1] (300 μg/kg IP, peak at 30 min post dose, hydrochloride) was found to be 67% 30 min.
As for `COc1ccc(CN[C@@H](C(=O)N2CCCC2)[C@@H](O)c2ccncc2)cc1` (racemic) [Compound 67, DL-threo-2-(4-Methoxybenzylamino)-3-hydroxy-3-(pyridin-4-yl)-1-(pyrrolidin-1-yl)propan-1-one one], in data set [1] (setting [2]), the inhibition in vivo at 0.3 mg/kg was 78%.
As to `N[C@@H](C(=O)N1CCCC1)[C@@H](O)c1cccnc1` (racemic) [Compound 20, DL-threo-2-Amino-3-hydroxy-3-(pyridin-3-yl)-1-(pyrrolidin-1-yl)propan-1-one dihydrochloride], in data set [1] (setting [3]), the inhibition in vivo at 0.03 mg/kg worked out at 92%.
For `N[C@@H](C(=O)N1CCC(F)(F)C1)[C@@H](O)c1ccncc1` (racemic) [Compound 213, (±)-threo-2-Amino-1-(3,3-difluoropyrrolidin-1-yl)-3-hydroxy-3-(pyridin-4-yl)propan-1-one dihydrochloride], the inhibition in vivo at 0.3 mg/kg in data set [1] (setting [4]) was determined as 85%.
As to `N[C@@H](C(=O)N1CCCC1)[C@@H](O)c1cccc2ccccc12` (racemic) [Compound 29, DL-threo-2-Amino-3-hydroxy-3-(naphthalen-1-yl)-1-(pyrrolidin-1-yl)propan-1-one hydrochloride], the inhibition in vivo at 0.3 mg/kg in data set [1] (setting [2]) was found to be 47%.
`O=C([C@@H](NCc1cccc(I)c1)[C@H](O)c1ccncc1)N1CCCC1` [Compound 228, (+)-(2S,3R)-2-(3-iodobenzylamino)-3-hydroxy-3-(pyridin-4-yl)-1-(pyrrolidin-1-yl)-propan-1-one dihydrochloride]: the inhibition in vivo at 0.3 mg/kg in data set [1] (setting [2]) was determined as 36%.
Consider `NC(C(=O)N1CC[C@@H](F)C1)C(O)c1ccncc1` (stereo partly drawn) [Compound 215, (2S,3R)- & (2R,3S)-2-Amino-1-((R)-3-fluoropyrrolidin-1-yl)-3-hydroxy-3-(pyridin-4-yl)propan-1-one dihydrochlorides], for which the inhibition in vivo at 0.3 mg/kg in data set [1] (setting [2]) was determined as 73%.
`N[C@@H](C(=O)N1CCCC1)[C@@H](O)c1ccc[nH]c1=O` (racemic) [Compound 49, 3-(DL-threo-2-Amino-1-hydroxy-3-oxo-3-pyrrolidin-1-yl-propyl)-1H-pyridin-2-one hydrochloride]: the inhibition in vivo at 0.1 mg/kg in data set [1] (setting [3]) was determined as 85%.
On to `C[C@@](O)(c1ccncc1)[C@@H](N)C(=O)N1CCCC1` (racemic) [Compound 239, (±)-erythro-2-Amino-3-hydroxy-3-(pyridin-4-yl)-1-(pyrrolidin-1-yl)butan-1-one dihydrochloride], for which the inhibition in vivo at 0.3 mg/kg in data set [1] (setting [4]) worked out at 75%.
Regarding `N[C@@H](C(=O)N1CCCC1)[C@@H](O)c1ccc2ccccc2c1` (racemic) [Compound 28, DL-threo-2-Amino-3-hydroxy-3-(naphthalen-2-yl)-1-(pyrrolidin-1-yl)propan-1-one hydrochloride], the inhibition in vivo at 0.3 mg/kg in data set [1] (setting [2]) amounted to 92%.
